Measurements taken from US20070248599A1 (priority 2006, published 2007).

Experiments:
[1] = system: N2a-APPsw cells; assay: Cellular Aβ production in N2a-APPsw cells (Aβ40 ELISA of conditioned medium); type: cell-based, mouse; settings: for Aβ production: recombinant ApoE forms at 10 μg/ml, N2a-APPsw cells (FIG. 5B)
Procedure: Quantification of β-Amyloid40, Neuro-2a cell stably overexpressing APPsw695 was used for detecting of β-Amyloid40. N2a-APPsw cells were grown in Dulbecco's Modified Eagle's medium (DMED) containing 10% fetal bovine serum, 100 U/mL penicillin, and 100 μg/mL streptomycin (GibcoBUR) with 80 μg/mL G418. Cells were cultured in 24-well plates one day before treatment. Transient transfections were done using FeGENE6 (Roche), fresh Optimum medium (Invitrogen) were supplied 5 h after transfection. Same concentration purified Apolipoprotein was added into the fresh medium. Conditioned medium was collected 24 h later. Aβ40 was quantified with sandwich ELISA by using Aβ40 ELISA Kit (Biosource). At least three times assays were done for each condition.
Cellular Aβ40 production. Neuroblastoma N2a-APPsw cells (from Dr. Riqiang Yan, Lerner Research Institute, Cleveland, Ohio) were cultured in 24-well plates in Dulbecco's Modified Eagle's medium (DMED) containing 10% fetal bovine serum, 100 U/mL penicillin, and 100 μg/mL streptomycin (GibcoBUR) with 80 μg/mL G418 one day before use. Transient transfections were done using FeGENE6 (Roche), fresh Optimum medium (Invitrogen) were supplied 5 h after transfection. Apolipoproteins were added in the fresh medium at 10 μg/mL. Conditioned medium was collected 24 h later. Aβ40 was determined in tripcates using Aβ40 ELISA Kit (Biosource). For studying the effect of PTB domain on Aβ production, N2a-APPsw cells were transfected with (0.4 μg/per well for 24 well plate) of PTB-containing vector before subjected to the above procedure.

[2] = system: N2a-APPsw cells; assay: as above; type: cell-based, mouse; settings: for Aβ production: each at 5 μg/mL, 24 h, N2a-APPsw cells (FIG. 5B legend)
[3] = system: N2a-APPsw cells transfected with ApoER2 and β-secretase; assay: Internalization of cell surface proteins (biotinylation, Western blot); type: cell-based, mouse
Procedure: Internalization of cell surface proteins. N2a-APPsw cells were transiently tranfected with ApoER2 and β-secretase with Lipfectamine 2000. […] Cells were then placed on ice, rinsed in cold PBS and incubated in PBS containing 1.5 mg/mL sulfo-NHS-LC-biotin (Pierce) for 20 min at 4° C. Cells were rinsed twice in PBS and lysed in 800 μl PBS containing 0.1% SDS, 1% NP40 and a complete protease inhibitor cocktail. Total protein concentration was determined by immunoblotting from an aliquot of 50 μl cell lysate. Biotinylated proteins were recovered with NeutrAvidin agarose (50 μl; Pierce), rinsed three times, eluted in 20 μl SDS-sample buffer at boiling temperature and used for Western-blot. Quantity of bands was determined by optical scanning instruments specified above. For the determination of internalized proteins, cells were prepared as above, rinsed in PBS and then incubated with cold 1.5 mg/mL cleavable biotin reagent in PBS (EZ-Link Sulfo-NHS-SS biotin, Pierce) for 20 min at 4° C. […] Cells were then lysed in 800 μl PBS containing 0.1% SDS, 1% NP40 and a complete protease inhibitor cocktail. After centrifugation, biotinylated proteins were retrieved by incubation with NeutrAvidin agarose (50 μl; Pierce). Isolated proteins were rinsed in buffer three times and boiled in 20 μl sample buffer for Western blots.

[4] = system: N2a-APPsw cells transfected with ApoER2 and β-secretase; assay: as above; type: cell-based, mouse; settings: Western blot of conditioned medium (FIG. 6D)
[5] = molecular target: T1, human LRP (LDL receptor related protein) (human, UniProt Q07954 20-4544); assay: co-IP from HEK293 lysate, Western blot
T1 construct: whole, on cells; Expressed in HEK293 cells in place of ApoER2 and assayed in lysate
Procedure: KPI is a Kunitz protease inhibitor domain. In ApoER2, the alternative spliced 59-residue insertion is shown in blue. […] Experimental conditions same as in FIG. 7A.
Co-immunoprecipitation and Western Blot Assays. […] 36 h after transfection, cells were harvested and lysed on ice in lysis buffer (PBS, pH 7.4 with 1% NP-40 and 1% Saponin with protease inhibitors cocktail (Roche)). Cell lysates were cleared by centrifugation and immunoprecipitated with indicated antibody for 4 h at 4° C. Immune complexes were isolated using protein G-agarose beads (Sigma) and subjected to SDS-PAGE and Western blotting using specific antibodies.

[6] = 10 μg/mL, internalization 15 min at 37° C. (FIG. 6B)

T1 sequence (Q07954 20-4544): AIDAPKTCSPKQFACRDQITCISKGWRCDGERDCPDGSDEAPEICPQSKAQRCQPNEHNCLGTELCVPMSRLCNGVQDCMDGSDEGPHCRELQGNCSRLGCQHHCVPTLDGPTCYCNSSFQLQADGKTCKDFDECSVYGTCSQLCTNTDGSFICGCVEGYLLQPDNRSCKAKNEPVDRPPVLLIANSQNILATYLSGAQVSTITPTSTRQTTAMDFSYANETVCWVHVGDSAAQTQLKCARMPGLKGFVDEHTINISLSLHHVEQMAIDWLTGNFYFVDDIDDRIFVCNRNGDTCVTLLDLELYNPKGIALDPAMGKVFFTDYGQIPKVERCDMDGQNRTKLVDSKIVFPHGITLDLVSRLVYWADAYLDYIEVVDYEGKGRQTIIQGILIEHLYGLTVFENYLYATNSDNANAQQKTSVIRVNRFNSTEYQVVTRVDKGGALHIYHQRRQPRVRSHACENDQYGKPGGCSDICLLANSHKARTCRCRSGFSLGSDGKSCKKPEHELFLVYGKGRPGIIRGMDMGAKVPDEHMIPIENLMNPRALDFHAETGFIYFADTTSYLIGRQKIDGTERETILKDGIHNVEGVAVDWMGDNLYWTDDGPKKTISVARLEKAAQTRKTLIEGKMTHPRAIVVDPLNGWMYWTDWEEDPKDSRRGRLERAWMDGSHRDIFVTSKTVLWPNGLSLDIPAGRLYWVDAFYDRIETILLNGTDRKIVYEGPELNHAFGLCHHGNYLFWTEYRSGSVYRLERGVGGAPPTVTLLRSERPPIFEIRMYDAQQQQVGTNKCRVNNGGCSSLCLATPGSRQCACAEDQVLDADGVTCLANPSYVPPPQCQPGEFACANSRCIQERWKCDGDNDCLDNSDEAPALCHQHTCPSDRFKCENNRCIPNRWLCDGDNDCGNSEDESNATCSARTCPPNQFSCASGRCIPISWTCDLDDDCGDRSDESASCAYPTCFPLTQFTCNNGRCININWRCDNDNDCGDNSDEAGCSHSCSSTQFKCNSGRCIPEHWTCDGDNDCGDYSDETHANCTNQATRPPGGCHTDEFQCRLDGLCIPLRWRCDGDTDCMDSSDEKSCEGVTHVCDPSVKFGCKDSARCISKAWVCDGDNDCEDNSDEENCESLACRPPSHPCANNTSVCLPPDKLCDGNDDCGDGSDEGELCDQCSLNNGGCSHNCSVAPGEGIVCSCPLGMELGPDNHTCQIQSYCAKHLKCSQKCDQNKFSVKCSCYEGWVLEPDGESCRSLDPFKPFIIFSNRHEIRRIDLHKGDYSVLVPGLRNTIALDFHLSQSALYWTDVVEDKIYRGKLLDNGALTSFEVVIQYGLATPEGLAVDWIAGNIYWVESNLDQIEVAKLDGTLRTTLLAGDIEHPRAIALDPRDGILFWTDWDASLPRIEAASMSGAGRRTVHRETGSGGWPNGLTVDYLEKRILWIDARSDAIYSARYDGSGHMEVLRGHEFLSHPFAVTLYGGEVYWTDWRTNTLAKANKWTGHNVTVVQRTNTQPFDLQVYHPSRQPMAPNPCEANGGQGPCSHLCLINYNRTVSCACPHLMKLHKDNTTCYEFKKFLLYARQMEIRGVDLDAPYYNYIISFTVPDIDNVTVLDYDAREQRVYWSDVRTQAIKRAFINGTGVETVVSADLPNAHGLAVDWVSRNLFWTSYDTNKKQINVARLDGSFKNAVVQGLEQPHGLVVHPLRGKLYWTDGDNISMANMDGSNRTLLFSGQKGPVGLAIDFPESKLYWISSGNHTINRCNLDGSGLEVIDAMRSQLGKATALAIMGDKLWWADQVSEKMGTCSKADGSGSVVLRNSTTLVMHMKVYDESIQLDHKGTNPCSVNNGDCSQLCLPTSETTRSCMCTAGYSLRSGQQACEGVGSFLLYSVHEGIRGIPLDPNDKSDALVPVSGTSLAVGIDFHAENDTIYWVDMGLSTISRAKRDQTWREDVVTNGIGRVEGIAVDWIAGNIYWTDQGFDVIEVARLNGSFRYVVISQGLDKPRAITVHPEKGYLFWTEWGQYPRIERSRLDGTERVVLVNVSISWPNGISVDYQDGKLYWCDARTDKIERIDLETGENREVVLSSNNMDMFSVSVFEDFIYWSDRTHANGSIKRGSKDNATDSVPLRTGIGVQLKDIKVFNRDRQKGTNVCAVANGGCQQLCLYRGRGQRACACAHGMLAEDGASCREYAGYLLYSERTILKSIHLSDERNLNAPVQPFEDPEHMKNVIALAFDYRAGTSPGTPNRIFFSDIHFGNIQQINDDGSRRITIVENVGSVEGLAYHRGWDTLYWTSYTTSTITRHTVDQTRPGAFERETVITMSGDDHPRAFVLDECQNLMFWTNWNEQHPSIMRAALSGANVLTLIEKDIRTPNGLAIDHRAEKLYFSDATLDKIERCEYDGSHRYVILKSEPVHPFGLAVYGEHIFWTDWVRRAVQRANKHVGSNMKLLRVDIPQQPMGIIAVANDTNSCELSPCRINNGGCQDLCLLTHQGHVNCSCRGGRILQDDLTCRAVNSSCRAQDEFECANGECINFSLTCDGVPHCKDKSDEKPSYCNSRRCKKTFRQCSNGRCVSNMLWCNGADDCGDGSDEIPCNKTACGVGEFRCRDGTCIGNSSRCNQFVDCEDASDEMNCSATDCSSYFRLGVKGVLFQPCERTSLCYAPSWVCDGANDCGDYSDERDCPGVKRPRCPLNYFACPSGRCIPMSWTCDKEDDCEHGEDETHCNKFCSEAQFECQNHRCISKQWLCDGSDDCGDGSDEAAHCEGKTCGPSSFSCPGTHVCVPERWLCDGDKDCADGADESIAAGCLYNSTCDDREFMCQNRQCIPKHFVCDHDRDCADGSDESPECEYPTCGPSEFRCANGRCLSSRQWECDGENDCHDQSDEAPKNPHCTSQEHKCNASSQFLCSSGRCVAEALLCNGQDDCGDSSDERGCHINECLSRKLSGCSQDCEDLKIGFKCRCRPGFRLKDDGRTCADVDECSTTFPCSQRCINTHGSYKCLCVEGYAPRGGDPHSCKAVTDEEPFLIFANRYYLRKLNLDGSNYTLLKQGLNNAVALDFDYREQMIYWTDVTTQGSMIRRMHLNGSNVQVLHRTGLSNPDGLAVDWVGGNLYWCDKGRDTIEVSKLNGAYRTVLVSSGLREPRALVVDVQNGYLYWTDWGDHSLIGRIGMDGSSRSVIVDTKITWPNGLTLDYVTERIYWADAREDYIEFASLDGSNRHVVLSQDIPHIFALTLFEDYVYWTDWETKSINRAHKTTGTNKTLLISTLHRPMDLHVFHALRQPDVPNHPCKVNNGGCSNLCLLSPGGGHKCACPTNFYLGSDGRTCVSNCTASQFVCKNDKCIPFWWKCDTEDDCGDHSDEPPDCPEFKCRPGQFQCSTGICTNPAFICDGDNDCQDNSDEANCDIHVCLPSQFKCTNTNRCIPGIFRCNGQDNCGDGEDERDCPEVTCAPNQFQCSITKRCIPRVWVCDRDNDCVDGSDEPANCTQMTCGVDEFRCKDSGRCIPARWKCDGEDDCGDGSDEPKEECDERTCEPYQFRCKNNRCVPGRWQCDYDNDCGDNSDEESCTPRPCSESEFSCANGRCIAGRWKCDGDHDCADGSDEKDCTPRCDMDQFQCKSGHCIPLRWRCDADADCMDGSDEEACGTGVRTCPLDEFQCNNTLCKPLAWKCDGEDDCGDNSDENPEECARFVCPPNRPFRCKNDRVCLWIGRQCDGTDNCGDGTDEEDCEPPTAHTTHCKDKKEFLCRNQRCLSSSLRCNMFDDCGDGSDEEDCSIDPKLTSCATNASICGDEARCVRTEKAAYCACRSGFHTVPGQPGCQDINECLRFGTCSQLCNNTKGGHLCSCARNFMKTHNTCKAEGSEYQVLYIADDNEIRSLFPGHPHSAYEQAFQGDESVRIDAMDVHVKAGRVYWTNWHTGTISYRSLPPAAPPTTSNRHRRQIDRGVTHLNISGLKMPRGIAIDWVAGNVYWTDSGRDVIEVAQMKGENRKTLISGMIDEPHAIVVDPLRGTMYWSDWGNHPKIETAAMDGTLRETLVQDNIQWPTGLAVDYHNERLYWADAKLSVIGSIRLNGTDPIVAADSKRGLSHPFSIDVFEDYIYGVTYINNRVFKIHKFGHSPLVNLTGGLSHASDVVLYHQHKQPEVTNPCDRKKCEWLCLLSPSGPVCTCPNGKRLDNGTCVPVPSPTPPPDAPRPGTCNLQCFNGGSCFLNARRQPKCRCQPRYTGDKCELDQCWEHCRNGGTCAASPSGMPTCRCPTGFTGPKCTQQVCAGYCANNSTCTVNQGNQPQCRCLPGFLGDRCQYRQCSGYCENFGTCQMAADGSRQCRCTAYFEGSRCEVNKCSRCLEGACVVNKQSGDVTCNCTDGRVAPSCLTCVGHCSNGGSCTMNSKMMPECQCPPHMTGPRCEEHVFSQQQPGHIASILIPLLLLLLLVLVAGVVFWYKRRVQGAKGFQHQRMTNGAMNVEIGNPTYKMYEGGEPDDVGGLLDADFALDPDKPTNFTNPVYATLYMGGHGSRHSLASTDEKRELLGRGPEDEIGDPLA

ApoE2: recombinant ApoE isoform with cysteine at residue 158, from Alpha Diagnostic
Aβ production [1]: increased Aβ production
Aβ production [2]: increased Aβ production

ApoE3: recombinant ApoE isoform, the reference sequence, from Alpha Diagnostic
Aβ production [1]: increased Aβ production
Aβ production [2]: increased Aβ production

ApoE: purified human apolipoprotein E, purchased from Biodesign / Alpha Diagnostic
Aβ production in cells transfected with ApoER2 versus without ([1]; N2a-APPsw cells (FIG. 5D)): produced more Aβ
Aβ40 increase in cells transfected with ApoER2 versus blank vectors ([2]; 5 μg/mL, N2a APPsw cells, p<0.05 (FIG. 4)): increase of Aβ40 at a greater extent
Aβ40 levels in medium ([2]; 5 μg/mL, blank vector transfected N2a APPsw cells vs control (FIG. 4)): increased over that in the control cells
Aβ production [2]: increased Aβ production
total amounts of ApoER2, APP and β-secretase in the cell lysates ([3]; 10 μg/mL, 2 h): remained about the same
decrease of remaining cell-surface β-secretase ([3]; 10 μg/mL, 2 h, compared to controls (FIG. 6A)): ~7%
increase of intracellular APP [3, 6]: about 2.5 fold
increase of intracellular ApoER2 [3, 6]: small increases
increase of intracellular β-secretase [3, 6]: small increases
intracellular APP C-terminal fragment C99 ([3]; Western blot, over the control (FIG. 6C)): significantly increased
APP ectodomain generated by ∝-secretase, s∝-APP [4]: reduction

B1: human X11α (other)
chain: MNHLEGSAEVEVTDEAAGGEVNESVEADLEHPEVEEEQQQPPQQQHYVGRHQRGRALEDLRAQLGQEEEERGECLARSASTESGFHNHTDTAEGDVIAAARDGYDAERAQDPEDESAYAVQYRPEAEEYTEQAEAEHAEATHRRALPNHLHFHSLEHEEAMNAAYSGYVYTHRLFHRGEDEPYSEPYADYGGLQEHVYEEIGDAPELDARDGLRLYEQERDEAAAYRQEALGARLHHYDERSDGESDSPEKEAEFAPYPRMDSYEQEEDIDQIVAEVKQSMSSQSLDKAAEDMPEAEQDLERPPTPAGGRPDSPGLQAPAGQQRAVGPAGGGEAGQRYSKEKRDAISLAIKDIKEAIEEVKTRTIRSPYTPDEPKEPIWVMRQDISPTRDCDDQRPMDGDSPSPGSSSPLGAESSSTSLHPSDPVEASTNKESRKSLASFPTYVEVPGPCDPEDLIDGIIFAANYLGSTQLLSDKTPSKNVRMMQAQEAVSRIKMAQKLAKSRKKAPEGESQPMTEVDLFISTQRIKVLNADTQETMMDHPLRTISYIADIGNIVVLMARRRMPRSNSQENVEASHPSQDGKRQYKMICHVFESEDAQLIAQSIGQAFSVAYQEFLRANGINPEDLSQKEYSDLLNTQDMYNDDLIHFSKSENCKDVFIEKQKGEILGVVIVESGWGSILPTVIIANMMHGGPAEKSGKLNIGDQIMSINGTSLVGLPLSTCQSIIKGLKNQSRVKLNIVRCPPVTTVLIRRPDLRYQLGFSVQNGIICSLMRGGIAERGGVRVGHRIIEINGQSVVATPHEKIVHILSNAVGEIHMKTMPAAMYRLLTAQEQPVYI
notes: Adaptor protein expressed from a cDNA vector in HEK293 cells and assayed in lysate; the vector came from an outside laboratory; also called X11α/β
binding result [5]: no binding

B2: PTB domain of X11α (residue 457-751) expressed from pcDNA6 (other)
chain: DGIIFAANYLGSTQLLSDKTPSKNVRMMQAQEAVSRIKMAQKLAKSRKKAPEGESQPMTEVDLFISTQRIKVLNADTQETMMDHPLRTISYIADIGNIVVLMARRRMPRSNSQENVEASHPSQDGKRQYKMICHVFESEDAQLIAQSIGQAFSVAYQEFLRANGINPEDLSQKEYSDLLNTQDMYNDDLIHFSKSENCKDVFIEKQKGEILGVVIVESGWGSILPTVIIANMMHGGPAEKSGKLNIGDQIMSINGTSLVGLPLSTCQSIIKGLKNQSRVKLNIVRCPPVTTVLIR
notes: Expressed in cells from pcDNA6; also called separately expressed PTB domain of X11α
binding result [5]: no binding
